Common to all, as to assay type: cell-based
For one test, the system named is Pyricularia oryzae. Description: microbe, parasite or virus in culture. The settings on record: 168 h, read-out: % control compared to the untreated check (radial growth).
For another test, the system named is Alternaria solani. The test can be described thus: Alternaria solani (early blight of tomato/potato) in vitro test, radial growth on Potato Dextrose Agar. The following applies: 168 h, 300 ppm, seven days, 25° C., read-out: % control compared to the untreated check (radial growth).
Another test has as its system Rhizoctonia solani. The test can be described thus: Rhizoctonia solani (rice sheath blight/potato black scurf) in vitro test, radial growth on Potato Dextrose Agar. The settings on record: 168 h, 300 ppm, seven days, 25° C., read-out: % control compared to the untreated check (radial growth).
The next test concerns Botrytis cinerea. Description: Botrytis cinerea (gray mold) in vitro test, radial growth on Potato Dextrose Agar. The following applies: 168 h, 300 ppm, seven days, 22° C., read-out: % (control) compared to the untreated check (radial growth).

The structures appear in SMILES notation. Counter-ions that a name gives are not always drawn.

As for `CCN(C)C=Nc1c(C)cc(C(F)(F)c2ccccc2)c(C)c1I` [Compound 73, N′-(4-(difluoro(phenyl)methyl)-2-iodo-3,6-dimethylphenyl)-N-ethyl-N-methylformimidamide], the inhibition of growth at 300 ppm in the test on Pyricularia oryzae was > 75%.

Turning to `CCN(C)C=Nc1cc(C)c(Cc2cc(C(F)(F)F)cc(Cl)c2F)cc1Cl` [Compound 126, N′-(2-chloro-4-(3-chloro-2-fluoro-5-(trifluoromethyl)benzyl)-5-methylphenyl)-N-ethyl-N-methylformimidamide], the inhibition of growth at 300 ppm in the test with Pyricularia oryzae and with Alternaria solani was > 75% in each case.

As for `CCN(C)C=Nc1cc(C)c(Cc2ccccn2)cc1C` [Compound 202, N′-(2,5-dimethyl-4-(pyridin-2-ylmethyl)phenyl)-N-ethyl-N-methylformimidamide], the inhibition of growth at 300 ppm with Pyricularia oryzae and in the test with Alternaria solani was > 75% each time.

Turning to `CCN(C)C=Nc1c(C)cc(Cc2ccc(C3CC3)cc2)c(C)c1C1CC1` [Compound 267, N′-(2-cyclopropyl-4-(4-cyclopropylbenzyl)-3,6-dimethylphenyl)-N-ethyl-N-methylformimidamide], the inhibition of growth at 300 ppm in the test on Pyricularia oryzae is > 75%; with Rhizoctonia solani it was > 80%; in the test on Botrytis cinerea it was > 80%; in the test with Alternaria solani, > 75%.

Regarding `COC=Nc1c(C)cc(Cc2ccc(Br)cc2)c(C)c1Br` [Compound 217, methyl N-(2-bromo-4-(4-bromobenzyl)-3,6-dimethylphenyl)formimidate], the inhibition of growth at 300 ppm in the test with Botrytis cinerea is > 80%.

In the case of `CON(C)C=Nc1cc(C)c(Cc2ccccc2F)cc1C` [Compound 61, N′-(4-(2-fluorobenzyl)-2,5-dimethylphenyl)-N-methoxy-N-methylformimidamide], the inhibition of growth at 300 ppm with Pyricularia oryzae was > 75%; in the test on Rhizoctonia solani, > 80%; in the test with Alternaria solani, > 75%.

Take `CCN(C)C=Nc1cc(C(F)(F)F)c(Cc2ccccc2Cl)cc1F` [Compound 226, N′-(4-(2-chlorobenzyl)-2-fluoro-5-(trifluoromethyl)phenyl)-N-ethyl-N-methylformimidamide]: the values for the inhibition of growth at 300 ppm in the test with Pyricularia oryzae, in the test on Rhizoctonia solani and in the test on Alternaria solani were > 75%, > 80% and > 75%, respectively.

`CCN(C)C=Nc1cc(C)c(C(C#N)c2ccc(C)cc2)cc1Cl` (stereo not shown) [Compound 191, N′-(2-chloro-4-(cyano(p-tolyl)methyl)-5-methylphenyl)-N-ethyl-N-methylformimidamide]: the inhibition of growth at 300 ppm in the test with Rhizoctonia solani and in the test with Botrytis cinerea was > 80% each time.

For `CCN(C)C=Nc1cc(C)c(C(C#N)c2ccc(C(F)(F)F)cc2)cc1Cl` (stereo not shown) [Compound 187, N′-(2-chloro-4-(cyano(4-(trifluoromethyl)phenyl)methyl)-5-methylphenyl)-N-ethyl-N-methylformimidamide], the inhibition of growth at 300 ppm with Botrytis cinerea was > 80%.

Take `CCN(C)C=Nc1cc(Cl)c(C(C(=O)OC)c2cccc(Cl)c2)cc1C` (stereo not shown) [Compound 237, methyl 2-(2-chloro-4-(((ethyl(methyl)amino)methylene)amino)-5-methylphenyl)-2-(3-chlorophenyl)acetate]: the inhibition of growth at 300 ppm in the test with Pyricularia oryzae and in the test on Alternaria solani was > 75% each time.

Turning to `Cc1cc(N=CNC#N)c(C)cc1Cc1ccccc1Cl` [Compound 65, N′-(4-(2-chlorobenzyl)-2,5-dimethylphenyl)-N-cyanoformimidamide], the inhibition of growth at 300 ppm in the test with Botrytis cinerea was > 80%.

On to `CCN(C)C=Nc1cc(C(F)(F)F)c(Cc2cccc(C)c2)cc1F` [Compound 231, N-ethyl-N′-(2-fluoro-4-(3-methylbenzyl)-5-(trifluoromethyl)phenyl)-N-methylformimidamide], for which the inhibition of growth at 300 ppm in the test with Pyricularia oryzae was > 75%; in the test with Rhizoctonia solani, > 80%; in the test on Alternaria solani, > 75%.

`C=C(c1ccc(Br)cc1)c1cc(C)c(N=CN(C)CC)cc1Cl` [Compound 238, N′-(4-(1-(4-bromophenyl)vinyl)-5-chloro-2-methylphenyl)-N-ethyl-N-methylformimidamide]: the inhibition of growth at 300 ppm was > 75% in the test on Pyricularia oryzae, > 80% in the test on Botrytis cinerea and > 75% with Alternaria solani.

Regarding `CCN(C)C=Nc1cc(C)c(C(C#N)c2cccc(C(F)(F)F)c2)cc1Cl` (stereo not shown) [Compound 188, N′-(2-chloro-4-(cyano(3-(trifluoromethyl)phenyl)methyl)-5-methylphenyl)-N-ethyl-N-methylformimidamide], the inhibition of growth at 300 ppm in the test with Pyricularia oryzae was > 75%; with Botrytis cinerea, > 80%.

As to `CCN(C)C=Nc1cc(C)c(C(C#N)c2ccc(F)c(Cl)c2)cc1Cl` (stereo not shown) [Compound 190, N′-(2-chloro-4-((3-chloro-4-fluorophenyl)(cyano)methyl)-5-methylphenyl)-N-ethyl-N-methylformimidamide], the inhibition of growth at 300 ppm with Pyricularia oryzae was > 75%; in the test on Botrytis cinerea, > 80%.

For `CCN(C)C=Nc1cc(Cl)c(Cc2ccccc2Cl)cc1Cl` [Compound 150, N′-(2,5-dichloro-4-(2-chlorobenzyl)phenyl)-N-ethyl-N-methylformimidamide], the inhibition of growth at 300 ppm in the test with Pyricularia oryzae and with Alternaria solani was > 75% in each case.

For `CCN(C)C=Nc1c(C)cc(Cc2ccccc2C)c(C)c1Br` [Compound 219, N′-(2-bromo-3,6-dimethyl-4-(2-methylbenzyl)phenyl)-N-ethyl-N-methylformimidamide], the inhibition of growth at 300 ppm is > 75% in the test on Pyricularia oryzae, > 80% in the test on Botrytis cinerea and > 75% with Alternaria solani.

As for `CCN(C)C=Nc1cc(C(F)(F)F)c(Cc2cccc(OC(F)(F)F)c2)cc1F` [Compound 233, N-ethyl-N′-(2-fluoro-4-(3-(trifluoromethoxy)benzyl)-5-(trifluoromethyl)phenyl)-N-methylformimidamide], the results for the inhibition of growth at 300 ppm in the test on Pyricularia oryzae, with Botrytis cinerea and in the test with Alternaria solani were > 75%, > 80% and > 75%, respectively.

As to `CCN(C)C=Nc1cc(F)c(Cc2ccccc2F)cc1F` [Compound 242, N′-(2,5-difluoro-4-(2-fluorobenzyl)phenyl)-N-ethyl-N-methylformimidamide], the inhibition of growth at 300 ppm in the test on Pyricularia oryzae was > 75%; in the test on Botrytis cinerea it was > 80%; in the test with Alternaria solani it was > 75%.

As for `CCN(C)C=Nc1cc(C)c(C(C#N)c2cccc(C(F)(F)F)c2)cc1Cl` (stereo not shown) [Compound 272, N′-(2-chloro-4-(cyano(3-(trifluoromethyl)phenyl)methyl)-5-methylphenyl)-N-ethyl-N-methylformimidamide hydrochloride], the inhibition of growth at 300 ppm with Alternaria solani was > 75%.

With `CCN(C)C=Nc1cc(C)c(C(C#N)c2cccc(F)c2)cc1Cl` (stereo not shown) [Compound 194, N′-(2-chloro-4-(cyano(3-fluorophenyl)methyl)-5-methylphenyl)-N-ethyl-N-methylformimidamide], the inhibition of growth at 300 ppm in the test with Pyricularia oryzae is > 75%.

Regarding `CCN(C)C=Nc1cc(C)c(Cc2cccc(Cl)c2)cc1S(C)(=O)=O` [Compound 218, N′-(4-(3-chlorobenzyl)-5-methyl-2-(methylsulfonyl)phenyl)-N-ethyl-N-methylformimidamide], the inhibition of growth at 300 ppm in the test on Alternaria solani is > 75%.

In the case of `CCN(C)C=Nc1cc(C)c(Cc2cccc(F)c2Cl)cc1Cl` [Compound 125, N′-(2-chloro-4-(2-chloro-3-fluorobenzyl)-5-methylphenyl)-N-ethyl-N-methylformimidamide], the inhibition of growth at 300 ppm in the test on Pyricularia oryzae and with Alternaria solani was > 75% throughout.

Turning to `CCN(C)C=Nc1cc(C)c(Cc2ccccc2C)cc1S(C)(=O)=O` [Compound 234, N-ethyl-N-methyl-N′-(5-methyl-4-(2-methylbenzyl)-2-(methylsulfonyl)phenyl)formimidamide], the inhibition of growth at 300 ppm with Pyricularia oryzae was > 75%; in the test on Botrytis cinerea, > 80%; with Alternaria solani, > 75%.

Regarding `CCN(C)C=Nc1cc(C(F)(F)F)c(Cc2ccccc2F)cc1F` [Compound 227, N-ethyl-N′-(2-fluoro-4-(2-fluorobenzyl)-5-(trifluoromethyl)phenyl)-N-methylformimidamide], the results for the inhibition of growth at 300 ppm in the test on Pyricularia oryzae, with Rhizoctonia solani and in the test with Alternaria solani were > 75%, > 80% and > 75%, respectively.

As for `CCN(C)C=Nc1cc(C)c(Cc2ccc(C)cc2)cc1S(C)(=O)=O` [Compound 235, N-ethyl-N-methyl-N′-(5-methyl-4-(4-methylbenzyl)-2-(methylsulfonyl)phenyl)formimidamide], the inhibition of growth at 300 ppm with Botrytis cinerea was > 80%.

`CCN(C)C=Nc1cc(C)c(C(C#N)c2ccc(Cl)cc2)cc1Cl` (stereo not shown) [Compound 193, N′-(2-chloro-4-((4-chlorophenyl)(cyano)methyl)-5-methylphenyl)-N-ethyl-N-methylformimidamide]: the inhibition of growth at 300 ppm in the test on Pyricularia oryzae is > 75%; in the test on Rhizoctonia solani, > 80%; in the test on Botrytis cinerea, > 80%.

As to `CCN(C)C=Nc1cc(Cl)c(Cc2ccc(C)cc2)cc1Cl` [Compound 147, N′-(2,5-dichloro-4-(4-methylbenzyl)phenyl)-N-ethyl-N-methylformimidamide], the inhibition of growth at 300 ppm with Rhizoctonia solani is > 80%; in the test with Alternaria solani it was > 75%.

Turning to `Cc1cc(N=CN2CCOCC2)c(Cl)cc1Cc1cccc(F)c1` [Compound 38, N-(2-chloro-4-(3-fluorobenzyl)-5-methylphenyl)-1-morpholinomethanimine], the inhibition of growth at 300 ppm in the test on Pyricularia oryzae is > 75%.

On to `CCN(C)C=Nc1cc(C(F)(F)F)c(Cc2cccc(F)c2)cc1C1CC1` [Compound 266, N′-(2-cyclopropyl-4-(3-fluorobenzyl)-5-(trifluoromethyl)phenyl)-N-ethyl-N-methylformimidamide], for which the inhibition of growth at 300 ppm with Pyricularia oryzae is > 75%; in the test with Botrytis cinerea, > 80%; with Alternaria solani it was > 75%.

Values taken from US11155517B2, “4-substituted phenylamine derivatives and their use to protect crops by fighting undesired phytopathogenic micoorganisms” (PI INDUSTRIES LTD., priority 2016, dated 2021).
